Data reported in US9629861B2, “Compositions and methods for treating bacterial infections using ceftaroline” (Forest Laboratories Holdings Limited, priority 2009, dated 2017).
Where two headings read alike, the source gives them in different places.

Experiments:
[1] = system: Community-Acquired Bacterial Pneumonia (CABP); assay: Phase 3 CABP Study 2 (Example 4, no adjunctive macrolide); assay type: in vivo, human; conditions: for Treatment Difference in clinical cure rate at TOC: versus ceftriaxone, CABP Study 2
Protocol: (§1) In both treatment groups of CABP Study 1, two doses of oral clarithromycin (500 mg q12h), were administered as adjunctive therapy starting on Study Day 1. No adjunctive macrolide therapy was used in CABP Study 2. Patients with new or progressive pulmonary infiltrate(s) on chest radiography and clinical signs and symptoms consistent with CABP with the need for hospitalization and IV therapy were enrolled in the studies. Treatment duration was 5 to 7 days. A switch to oral therapy was not allowed. The Modified Intent-to-Treat Efficacy (MITTE) population included all patients who received any amount of study drug according to their randomized treatment group and were in PORT (Pneumonia Outcomes Research Team) Risk Class III or IV.
(§2) The primary efficacy endpoint was the clinical response at the Test of Cure (TOC) visit in the co-primary CE and MITTE populations (Table 4).
(§3) The secondary objectives of the study were to evaluate the following: clinical response at end-of-therapy (EOT); the microbiological favorable outcome rate at TOC; the overall (clinical and radiographic) success rate at TOC; the clinical and microbiological response by pathogen at TOC; clinical relapse at late follow-up (LFU); microbiological reinfection/recurrence at LFU; and safety.
(§4) The following criteria were used for evaluation: The primary efficacy outcome measures were the per-subject clinical cure rate at test-of-cure (TOC) in the CE and MITTE Populations. Subjects were considered clinically cured at TOC if they had total resolution of all signs and symptoms of the baseline infection, or improvement of the infection such that no further antimicrobial therapy was necessary.
(§5) Non-inferiority was concluded if the lower limit of the 95% CI was higher than −10%.

CYP2C19 [2] = molecular target: T1, CYP2C19 (Homo sapiens, UniProt P33261); assay: CYP inhibition in human liver microsomes; assay type: in vitro ADME
T1 construct: In vitro studies in human liver microsomes; from tissue; host or cells: human liver microsomes
T1 sequence (P33261 whole entry): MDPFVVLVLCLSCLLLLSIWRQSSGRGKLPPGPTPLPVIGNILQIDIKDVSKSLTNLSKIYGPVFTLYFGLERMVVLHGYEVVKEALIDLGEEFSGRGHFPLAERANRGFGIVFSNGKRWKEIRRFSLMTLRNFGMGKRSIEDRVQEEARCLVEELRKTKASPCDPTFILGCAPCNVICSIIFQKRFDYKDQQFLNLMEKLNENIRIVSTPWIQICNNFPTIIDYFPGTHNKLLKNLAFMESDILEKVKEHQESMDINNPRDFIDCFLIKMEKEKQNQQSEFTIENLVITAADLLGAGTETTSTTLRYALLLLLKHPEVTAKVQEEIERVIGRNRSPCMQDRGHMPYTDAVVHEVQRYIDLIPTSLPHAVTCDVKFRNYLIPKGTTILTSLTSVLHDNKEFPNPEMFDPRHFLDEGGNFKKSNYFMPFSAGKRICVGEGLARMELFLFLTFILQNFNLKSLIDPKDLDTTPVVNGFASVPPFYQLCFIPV

CYP1A2 [3] = molecular target: CYP1A2 (Homo sapiens, UniProt P05177); assay type: in vitro ADME; conditions: human liver microsomes
CYP1A2 (Homo sapiens, UniProt P05177), sequence (P05177 whole entry): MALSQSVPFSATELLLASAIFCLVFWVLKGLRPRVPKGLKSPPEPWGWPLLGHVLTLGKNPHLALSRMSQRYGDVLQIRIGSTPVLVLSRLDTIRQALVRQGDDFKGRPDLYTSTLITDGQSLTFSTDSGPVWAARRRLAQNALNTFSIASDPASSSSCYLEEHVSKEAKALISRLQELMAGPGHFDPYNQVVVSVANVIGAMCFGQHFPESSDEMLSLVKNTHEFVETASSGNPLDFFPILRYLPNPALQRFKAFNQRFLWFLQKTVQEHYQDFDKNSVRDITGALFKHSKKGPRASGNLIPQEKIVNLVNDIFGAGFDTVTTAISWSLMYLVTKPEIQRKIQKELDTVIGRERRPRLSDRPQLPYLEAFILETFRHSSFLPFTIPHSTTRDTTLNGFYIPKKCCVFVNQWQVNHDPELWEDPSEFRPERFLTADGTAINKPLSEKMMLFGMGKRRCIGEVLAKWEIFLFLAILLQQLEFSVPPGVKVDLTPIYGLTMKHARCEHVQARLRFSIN

CYP2A6 = molecular target: T2, CYP2A6 (Homo sapiens, UniProt P11509); assay: CYP inhibition in human liver microsomes; assay type: in vitro ADME
T2 construct: In vitro studies in human liver microsomes; from tissue; host or cells: human liver microsomes
T2 sequence (P11509 whole entry): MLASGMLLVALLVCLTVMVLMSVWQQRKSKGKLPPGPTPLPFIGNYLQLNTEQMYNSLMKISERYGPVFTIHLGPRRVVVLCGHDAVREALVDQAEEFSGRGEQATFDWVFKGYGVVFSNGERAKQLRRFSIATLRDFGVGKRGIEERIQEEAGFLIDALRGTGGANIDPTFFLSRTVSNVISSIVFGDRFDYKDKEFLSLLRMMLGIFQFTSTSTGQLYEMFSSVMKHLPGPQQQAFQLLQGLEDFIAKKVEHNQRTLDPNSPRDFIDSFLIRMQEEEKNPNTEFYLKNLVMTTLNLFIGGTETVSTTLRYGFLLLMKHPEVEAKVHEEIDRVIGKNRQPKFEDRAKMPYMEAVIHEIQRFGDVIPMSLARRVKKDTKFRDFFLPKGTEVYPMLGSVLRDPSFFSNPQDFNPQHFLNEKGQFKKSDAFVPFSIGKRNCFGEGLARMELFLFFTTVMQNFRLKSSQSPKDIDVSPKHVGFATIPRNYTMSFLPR

[4] = system: Haemophilus parainfluenzae; conditions: ME patients with CABP
CYP2C8 [5] = molecular target: T3, CYP2C8 (Homo sapiens, UniProt P10632); assay: CYP inhibition in human liver microsomes; assay type: in vitro ADME
T3 construct: In vitro studies in human liver microsomes; from tissue; host or cells: human liver microsomes
T3 sequence (P10632 whole entry): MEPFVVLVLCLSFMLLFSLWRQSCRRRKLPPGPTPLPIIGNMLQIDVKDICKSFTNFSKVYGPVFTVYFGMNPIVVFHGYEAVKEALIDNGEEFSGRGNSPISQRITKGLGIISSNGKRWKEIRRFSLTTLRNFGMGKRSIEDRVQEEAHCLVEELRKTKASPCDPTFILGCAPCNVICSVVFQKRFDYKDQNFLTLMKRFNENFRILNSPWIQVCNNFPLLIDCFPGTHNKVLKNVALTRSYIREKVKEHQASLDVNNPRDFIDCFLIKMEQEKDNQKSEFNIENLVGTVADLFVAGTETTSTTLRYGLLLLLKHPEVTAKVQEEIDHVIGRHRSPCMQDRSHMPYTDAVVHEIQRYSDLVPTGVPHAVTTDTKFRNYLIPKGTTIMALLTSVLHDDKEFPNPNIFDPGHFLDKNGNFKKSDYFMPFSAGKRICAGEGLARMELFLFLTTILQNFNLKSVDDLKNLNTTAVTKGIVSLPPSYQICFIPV

[6] = system: Community-Acquired Bacterial Pneumonia (CABP); assay: Two Phase 3 studies in CABP, integrated; assay type: in vivo, human; conditions: versus ceftriaxone, integrated CABP studies
Protocol: as §1
(§6) The primary efficacy endpoint was the clinical response at the Test of Cure (TOC) visit in the co-primary CE and MITTE populations (Table 4). In a subgroup analysis (CE population), the comparative clinical cure rates between the ceftaroline group and the ceftriaxone group were not affected by age, gender, race, ethnicity, or weight.

CYP2E1 = molecular target: T4, CYP2E1 (Homo sapiens, UniProt P05181); assay: CYP inhibition in human liver microsomes; assay type: in vitro ADME
T4 construct: In vitro studies in human liver microsomes; from tissue; host or cells: human liver microsomes
T4 sequence (P05181 whole entry): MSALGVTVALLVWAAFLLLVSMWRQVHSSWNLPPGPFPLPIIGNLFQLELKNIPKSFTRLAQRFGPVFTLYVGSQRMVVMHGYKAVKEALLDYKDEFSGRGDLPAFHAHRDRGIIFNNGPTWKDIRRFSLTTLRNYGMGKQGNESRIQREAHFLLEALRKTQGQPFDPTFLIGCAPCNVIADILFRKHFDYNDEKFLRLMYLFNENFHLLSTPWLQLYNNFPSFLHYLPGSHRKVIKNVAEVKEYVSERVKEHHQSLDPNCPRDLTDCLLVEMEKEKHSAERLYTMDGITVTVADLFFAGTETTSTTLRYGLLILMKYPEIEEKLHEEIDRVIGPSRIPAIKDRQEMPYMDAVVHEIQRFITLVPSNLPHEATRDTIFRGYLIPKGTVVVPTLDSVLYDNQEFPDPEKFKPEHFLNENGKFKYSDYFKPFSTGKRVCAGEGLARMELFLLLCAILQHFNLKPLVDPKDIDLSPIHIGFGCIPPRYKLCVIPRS

CYP2B6 [7] = molecular target: T5, CYP2B6 (Homo sapiens, UniProt P20813); assay: CYP inhibition in human liver microsomes; assay type: in vitro ADME
T5 construct: In vitro studies in human liver microsomes; from tissue; host or cells: human liver microsomes
T5 sequence (P20813 whole entry): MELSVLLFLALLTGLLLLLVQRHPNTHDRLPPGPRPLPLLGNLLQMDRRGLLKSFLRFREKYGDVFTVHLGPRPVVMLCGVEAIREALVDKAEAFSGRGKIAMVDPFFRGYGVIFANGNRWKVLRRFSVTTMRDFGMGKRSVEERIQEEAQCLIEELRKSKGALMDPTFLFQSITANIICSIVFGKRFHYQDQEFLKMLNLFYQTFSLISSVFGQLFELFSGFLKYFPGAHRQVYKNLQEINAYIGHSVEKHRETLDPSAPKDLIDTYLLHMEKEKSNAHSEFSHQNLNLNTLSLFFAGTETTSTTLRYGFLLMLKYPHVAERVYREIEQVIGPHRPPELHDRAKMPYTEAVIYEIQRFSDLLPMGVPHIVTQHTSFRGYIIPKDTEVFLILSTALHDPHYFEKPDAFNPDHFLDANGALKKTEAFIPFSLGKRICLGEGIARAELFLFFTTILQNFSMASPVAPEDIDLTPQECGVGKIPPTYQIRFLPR

[8] = system: Community-Acquired Bacterial Pneumonia (CABP); assay: Phase 3 CABP Study 1 (Example 5, adjunctive clarithromycin); assay type: in vivo, human; conditions: versus ceftriaxone, CABP Study 1
Protocol: as §1, §2
as §3, with “objective” for “objectives”, “was” for “were”, “following: the” for “following:”
as §4, with “The” for “The following criteria were used for evaluation: The”, “TOC” for “test-of-cure (TOC)”
as §5

CYP3A4 = molecular target: T6, CYP3A4 (Homo sapiens, UniProt P08684); assay: CYP inhibition in human liver microsomes; assay type: in vitro ADME
T6 construct: In vitro studies in human liver microsomes; from tissue; host or cells: human liver microsomes
T6 sequence (P08684 whole entry): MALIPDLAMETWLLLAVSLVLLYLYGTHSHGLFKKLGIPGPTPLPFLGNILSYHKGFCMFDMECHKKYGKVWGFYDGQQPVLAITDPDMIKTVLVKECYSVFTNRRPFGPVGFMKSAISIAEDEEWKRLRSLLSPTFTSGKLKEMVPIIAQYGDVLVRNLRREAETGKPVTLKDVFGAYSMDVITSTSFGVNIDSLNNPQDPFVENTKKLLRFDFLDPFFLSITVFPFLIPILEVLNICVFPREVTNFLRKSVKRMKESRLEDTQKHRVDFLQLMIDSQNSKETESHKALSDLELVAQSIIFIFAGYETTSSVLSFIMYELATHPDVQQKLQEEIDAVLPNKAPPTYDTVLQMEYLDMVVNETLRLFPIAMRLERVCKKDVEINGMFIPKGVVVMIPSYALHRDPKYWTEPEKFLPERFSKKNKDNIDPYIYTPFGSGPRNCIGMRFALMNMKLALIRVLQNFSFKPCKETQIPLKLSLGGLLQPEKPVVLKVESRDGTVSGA

CYP1A2 [9] = conditions: human hepatocytes
CYP3A4/5 = assay: CYP induction in human hepatocytes; assay type: in vitro ADME
CYP2D6 = molecular target: T7, CYP2D6 (Homo sapiens, UniProt P10635); assay: CYP inhibition in human liver microsomes; assay type: in vitro ADME
T7 construct: In vitro studies in human liver microsomes; from tissue; host or cells: human liver microsomes
T7 sequence (P10635 whole entry): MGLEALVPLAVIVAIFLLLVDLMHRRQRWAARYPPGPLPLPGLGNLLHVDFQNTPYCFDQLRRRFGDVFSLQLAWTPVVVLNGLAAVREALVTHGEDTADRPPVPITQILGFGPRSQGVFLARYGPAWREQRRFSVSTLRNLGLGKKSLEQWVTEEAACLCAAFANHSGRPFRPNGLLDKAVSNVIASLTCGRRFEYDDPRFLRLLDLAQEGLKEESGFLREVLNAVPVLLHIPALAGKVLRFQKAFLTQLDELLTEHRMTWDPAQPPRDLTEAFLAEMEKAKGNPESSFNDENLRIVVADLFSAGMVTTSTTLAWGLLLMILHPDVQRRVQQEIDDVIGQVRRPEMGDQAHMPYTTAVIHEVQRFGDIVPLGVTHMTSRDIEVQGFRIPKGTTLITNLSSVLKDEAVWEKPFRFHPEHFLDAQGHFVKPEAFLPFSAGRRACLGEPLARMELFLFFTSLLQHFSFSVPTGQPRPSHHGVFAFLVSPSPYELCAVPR

CYP1A1 = molecular target: T8, CYP1A1 (Homo sapiens, UniProt P04798); assay: CYP inhibition in human liver microsomes; assay type: in vitro ADME
T8 construct: In vitro studies in human liver microsomes; from tissue; host or cells: human liver microsomes
T8 sequence (P04798 whole entry): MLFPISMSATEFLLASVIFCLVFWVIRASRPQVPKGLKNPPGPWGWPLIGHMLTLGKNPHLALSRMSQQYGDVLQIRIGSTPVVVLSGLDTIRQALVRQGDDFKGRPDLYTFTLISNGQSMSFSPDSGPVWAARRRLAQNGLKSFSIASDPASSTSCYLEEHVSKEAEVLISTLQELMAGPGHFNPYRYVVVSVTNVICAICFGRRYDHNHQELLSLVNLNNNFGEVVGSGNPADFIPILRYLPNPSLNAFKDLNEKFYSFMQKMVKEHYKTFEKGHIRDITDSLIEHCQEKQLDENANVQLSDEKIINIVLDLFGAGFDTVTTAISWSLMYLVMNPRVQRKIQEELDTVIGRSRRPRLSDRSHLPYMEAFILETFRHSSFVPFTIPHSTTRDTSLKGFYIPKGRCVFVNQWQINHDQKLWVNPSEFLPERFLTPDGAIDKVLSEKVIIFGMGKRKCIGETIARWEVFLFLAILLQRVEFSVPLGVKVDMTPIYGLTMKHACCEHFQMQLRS

CYP2C19 [10] = conditions: human hepatocytes
[11] = Pharmacokinetics of ceftaroline after IV infusion of ceftaroline fosamil in adults with normal renal function; parameters: species or system human; conditions: in vivo
Description: The standard deviation is shown in brackets.

CYP2C9 [12] = molecular target: T9, CYP2C9 (Homo sapiens, UniProt P11712); assay: CYP inhibition in human liver microsomes; assay type: in vitro ADME
T9 construct: In vitro studies in human liver microsomes; from tissue; host or cells: human liver microsomes
T9 sequence (P11712 whole entry): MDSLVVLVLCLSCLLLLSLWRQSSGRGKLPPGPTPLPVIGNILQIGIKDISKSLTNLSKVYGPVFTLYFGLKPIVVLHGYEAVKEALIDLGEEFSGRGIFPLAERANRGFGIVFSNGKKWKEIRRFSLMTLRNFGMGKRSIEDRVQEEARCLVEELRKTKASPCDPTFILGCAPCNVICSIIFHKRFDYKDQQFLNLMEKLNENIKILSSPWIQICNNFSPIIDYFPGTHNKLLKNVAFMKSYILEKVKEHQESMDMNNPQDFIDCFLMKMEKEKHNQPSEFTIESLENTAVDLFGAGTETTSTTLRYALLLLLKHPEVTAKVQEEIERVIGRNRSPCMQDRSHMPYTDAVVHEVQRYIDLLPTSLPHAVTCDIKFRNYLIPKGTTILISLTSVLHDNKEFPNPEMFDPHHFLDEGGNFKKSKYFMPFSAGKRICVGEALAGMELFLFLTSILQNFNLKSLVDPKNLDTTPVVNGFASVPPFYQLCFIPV

CYP2C9 [13] = assay: CYP induction in human hepatocytes; assay type: in vitro ADME
Aqueous solubility = assay type: physicochemical; conditions: with L-arginine, depending on the molarity of the solution
Description: In further embodiments, the compositions may comprise L-arginine.

[14] = Safety, four pooled controlled comparative Phase 3 studies (two cSSSI, two CABP); assay type: in vivo, human; conditions: pooled Phase 3 studies
Protocol: Ceftaroline fosamil was evaluated in four controlled comparative Phase 3 clinical studies (two in cSSSI and two in CABP).

CYP2C8 [15] = conditions: human hepatocytes
CYP2B6 [16] = assay: CYP induction in human hepatocytes; assay type: in vitro ADME
[17] = system: complicated skin and skin structure infections (cSSSI); assay: Phase 3 cSSSI Study 2; assay type: in vivo, human; conditions: versus vancomycin/aztreonam
Protocol: A total of 1396 adults with clinically documented complicated skin and skin structure infections (cSSSI) were enrolled in two randomized, multi-center, multinational, double-blind, studies comparing 600 mg ceftaroline fosamil administered intravenously over 1 hour every 12 hours to vancomycin plus aztreonam [1 g vancomycin administered intravenously over 1 hour followed by 1 g aztreonam administered intravenously over 1 hour every 12 hours]. Patients with cSSSI (deep/extensive cellulitis, a major abscess, a wound infection [surgical or traumatic], infected insect bites, burns or ulcers, lower extremity infection in patients with diabetes mellitus or peripheral vascular disease), were enrolled in the studies. Treatment duration was 5 to 14 days. A switch to oral therapy was not allowed. The Modified Intent-to-Treat (MITT) population included all patients who received any amount of study drug according to their randomized treatment group.
as §6, with “was” for “was the”, “MITT” for “MITTE”, “2). […]” for “4).”, “vancomycin plus aztreonam” for “ceftriaxone”

[18] = Example 4
Protocol: The 600-mg dose of ceftaroline fosamil infused over 60 minutes was split into two infusions in order to maintain the blind. For subjects with moderate renal impairment (30 ml/min<CrCl≦50 ml/min), as estimated by the Cockroft-Gault formula, unblinded pharmacy staff or unblinded study staff could adjust the dose of ceftaroline fosamil to two consecutive 200 mg infusions and readjust dose to two 300 mg infusions when renal function improved (CrCl>50 mL/min). The duration of treatment was between 5 to 7 days.
(§7) All subjects who received any amount of study drug were included in the safety analysis. Safety measures included monitoring for adverse events (AE) up to TOC and serious adverse events (SAE) through LFU; recording vital signs, physical examination, electrocardiogram (ECG), and clinical laboratory findings (clinical chemistry, hematology, and urinalysis), at prespecified times throughout the study.

[19] = Example 5
Protocol: The 600-mg dose of ceftaroline fosamil infused over 60 minutes was split into two infusions in order to maintain the blind. For subjects with moderate renal impairment (30 mL/min<CrCl≦50 mL/min), as estimated by the Cockroft-Gault formula, unblinded pharmacy staff or unblinded study staff could adjust the dose of ceftaroline fosamil to two consecutive 200 mg infusions and readjust dose to two 300 mg infusions when renal function improved (CrCl>50 mL/min). The duration of treatment was between 5 to 7 days.
as §7

[20] = Safety population, listed as ceftriaxone

SMILES: CCO/N=C(\C(=O)N[C@@H]1C(=O)N2C(C(=O)[O-])=C(Sc3nc(-c4cc[n+](C)cc4)cs3)CS[C@H]12)c1nsc(NP(=O)(O)O)n1 [Ceftaroline fosamil, (6R,7R)-7-{(2Z)-2-(ethoxyimino)-2-[5-(phosphonoamino)-1,2,4-thiadiazol-3-yl]acetamido}-3-{[4-(1-methylpyridin-1-ium-4-yl)-1,3-thiazol-2-yl]sulfanyl}-8-oxo-5-thia-1-azabicyclo[4.2.0]oct-2-ene-2-carboxylate]
- Treatment Difference in clinical cure rate at TOC ([1]; CE): 4.9 (−2.5, 12.5) %
- Treatment Difference in clinical cure rate at TOC ([1]; MITTE): 5.9 (−1.0, 12.7) %
- inhibition of CYP2C19 (CYP2C19 [2]): neither ceftaroline fosamil nor ceftaroline inhibits
- inhibition of CYP1A2 (CYP1A2 [3]): neither ceftaroline fosamil nor ceftaroline inhibits
- inhibition of CYP2A6 (CYP2A6): neither ceftaroline fosamil nor ceftaroline inhibits
- Clinical Cure Rate by Infecting Pathogen [4]: 16/16 (100%)
- inhibition of CYP2C8 (CYP2C8 [5]): neither ceftaroline fosamil nor ceftaroline inhibits
- Treatment Difference in clinical cure rate at TOC ([6]; CE): 6.7 (1.6, 11.8) %
- Treatment Difference in clinical cure rate at TOC ([6]; MITTE): 6.0 (1.4, 10.7) %
- inhibition of CYP2E1 (CYP2E1): neither ceftaroline fosamil nor ceftaroline inhibits
- inhibition of CYP2B6 (CYP2B6 [7]): neither ceftaroline fosamil nor ceftaroline inhibits
- Treatment Difference in clinical cure rate at TOC ([8]; CE): 8.4 (1.4, 15.4) %
- Treatment Difference in clinical cure rate at TOC ([8]; MITTE): 6.2 (−0.2, 12.6) %
- inhibition of CYP3A4 (CYP3A4): neither ceftaroline fosamil nor ceftaroline inhibits
- induction of CYP1A2 (CYP1A2 [9]): not inducers
- induction of CYP3A4/5 (CYP3A4/5): not inducers
- inhibition of CYP2D6 (CYP2D6): neither ceftaroline fosamil nor ceftaroline inhibits
- inhibition of CYP1A1 (CYP1A1): neither ceftaroline fosamil nor ceftaroline inhibits
- induction of CYP2C19 (CYP2C19 [10]): not inducers
- conversion of prodrug in plasma [11]: rapidly converted into bioactive ceftaroline in plasma
- inhibition of CYP2C9 (CYP2C9 [12]): neither ceftaroline fosamil nor ceftaroline inhibits
- induction of CYP2C9 (CYP2C9 [13]): not inducers
- solubility (Aqueous solubility): more than 200 mg per ml
- highest incidence of any adverse reaction [14]: ≤ 5%
- hypersensitivity leading to discontinuation [14]: 0.3%
- induction of CYP2C8 (CYP2C8 [15]): not inducers
- induction of CYP2B6 (CYP2B6 [16]): not inducers
- Treatment Difference (2-sided 95% CI) ([17]; CE): 0.1 (−4.4., 4.5)
- Treatment Difference (2-sided 95% CI) ([17]; MITT): −0.4 (−5.8, 5.0)

SMILES: CO/N=C(\C(=O)N[C@@H]1C(=O)N2C(C(=O)O)=C(CSc3nc(=O)c(=O)[nH]n3C)CS[C@H]12)c1csc(N)n1 [Ceftriaxone, reference compound]
- Per-subject Clinical Cure Rate at the EOT Visit ([1]; MITTE population, Example 4): 215 (78.8) %
- Favorable Microbiological Outcome at the TOC Visit ([1]; mMITTE population, Example 4): 72 (81.8) %
- TEAEs leading to premature discontinuation from study drug administration [18]: 1.3%
- any study-drug-related TEAEs, subjects [18]: 13.7%
- study-drug-related TEAE: headache [18]: 1.0%
- Early withdrawal from study, reason Adverse Event ([18]; MITTE population): 7 (2.6) %
- Any AE (TEAE), subjects ([18]; Safety population): 145 (47.2) %
- COPD, subjects ([18]; Safety population): 5 (1.6) %
- Diarrhea, subjects ([18]; Safety population): 9 (2.9) %
- Headache, subjects ([18]; Safety population): 5 (1.6) %
- Hypertension, subjects ([18]; Safety population): 8 (2.6) %
- Hypokalemia, subjects ([18]; Safety population): 5 (1.6) %
- Insomnia, subjects ([18]; Safety population): 8 (2.6) %
- Nausea, subjects ([18]; Safety population): 6 (2.0) %
- Phlebitis, subjects ([18]; Safety population): 8 (2.6) %
- Pleural effusion, subjects ([18]; Safety population): 7 (2.3) %
- Pneumonia, subjects ([18]; Safety population): 4 (1.3) %
- Any AE (TEAE), subjects [18, 20]: 47.2%
- Clinical Cure Rate by Infecting Pathogen [4]: 15/17 (88.2%)
- TEAEs leading to premature discontinuation from study drug administration [19]: 3.9%
- subjects with SAEs considered possibly or probably related to study drug [19]: 5 subjects
- Early withdrawal from study, reason Adverse Event ([19]; MITTE population): 7 (2.3) %
- Any AE (TEAE), subjects ([19]; Safety population): 136 (44.2) %
- Constipation, subjects ([19]; Safety population): 5 (1.6) %
- Diarrhea, subjects ([19]; Safety population): 7 (2.3) %
- Headache, subjects ([19]; Safety population): 4 (1.3) %
- Hypertension, subjects ([19]; Safety population): 8 (2.6) %
- Hypokalemia, subjects ([19]; Safety population): 10 (3.2) %
- Insomnia, subjects ([19]; Safety population): 6 (1.9) %
- Nausea, subjects ([19]; Safety population): 8 (2.6) %
- Phlebitis, subjects ([19]; Safety population): 5 (1.6) %
- Any AE (TEAE), subjects [19, 20]: 44.2%
- Diarrhea, subjects [19, 20]: 2.3%
- Headache, subjects [19, 20]: 1.3%

SMILES: CCO/N=C(\C(=O)N[C@H](C(=O)[O-])[C@@H]1NC(C(=O)[O-])=C(Sc2nc(-c3cc[n+](C)cc3)cs2)CS1)c1nsc(N)n1.[H+] [ceftaroline M-1]
- induction of CYP1A2 (CYP1A2 [9]): not inducers
- induction of CYP3A4/5 (CYP3A4/5): not inducers
- induction of CYP2C19 (CYP2C19 [10]): not inducers
- induction of CYP2C9 (CYP2C9 [13]): not inducers
- induction of CYP2C8 (CYP2C8 [15]): not inducers
- induction of CYP2B6 (CYP2B6 [16]): not inducers
